Structures are written as SMILES.

What all share (type): functional, cell-based
For assay [1], the system named is IMR-5. The assay can be described thus: cells. The settings on record: Homo sapiens.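 Further: growth inhibition of human IMR-5 cells, read out with a cell viability assay.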
Description: SANGER: Inhibition of human IMR-5 cell growth in a cell viability assay.
Assay [2] deals with DMS-153. Nature of the assay: cells. As to conditions: Homo sapiens.
Description: SANGER: Inhibition of human DMS-153 cell growth in a cell viability assay.
Assay [3] has as its system Kasumi 1. The assay can be described thus: cells. As to conditions: Homo sapiens.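 Further: growth inhibition of human Kasumi-1 cells, read out by a cell viability assay.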
Description: SANGER: Inhibition of human KASUMI-1 cell growth in a cell viability assay.
For assay [4], the system named is BL-70. The assay can be described thus: SANGER: Inhibition of human BL-70 cell growth in a cell viability assay.
The subject of assay [5] is CHP-126. Nature of the assay: cells. The settings on record: Homo sapiens.
Description: SANGER: Inhibition of human CHP-126 cell growth in a cell viability assay.
Assay [6] has as its system LB996-RCC. The assay can be described thus: cells. As to conditions: Homo sapiens.
Description: SANGER: Inhibition of human LB996-RCC cell growth in a cell viability assay.
Assay [7] deals with LP-1. The assay can be described thus: cells. As to conditions: Homo sapiens.
Description: SANGER: Inhibition of human LP-1 cell growth in a cell viability assay.
In assay [8] the test system is KARPAS-422. Nature of the assay: cells. As to conditions: Homo sapiens.
Description: SANGER: Inhibition of human KARPAS-422 cell growth in a cell viability assay.
Assay [9] concerns CA46. The assay can be described thus: cells. The settings on record: Homo sapiens.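 Further: growth inhibition of human CA46 cells, read out by a cell viability assay.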
Description: SANGER: Inhibition of human CA46 cell growth in a cell viability assay.
The subject of assay [10] is BC1 cell line. Nature of the assay: SANGER: Inhibition of human BC-1 cell growth in a cell viability assay.
Assay [11] relates to CESS. The assay can be described thus: SANGER: Inhibition of human CESS cell growth in a cell viability assay.
For assay [12], the system named is NCI-H1694. Nature of the assay: cells. As to conditions: Homo sapiens.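 Further: cell viability assay measuring inhibition of growth in human NCI-H1694 cells.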
Description: SANGER: Inhibition of human NCI-H1694 cell growth in a cell viability assay.
For assay [13], the system named is OPM-2. Nature of the assay: cells. The settings on record: Homo sapiens.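 Further: growth of OPM-2 cells measured with a viability assay, IC50 for suppression of proliferation.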
Description: SANGER: Inhibition of human OPM-2 cell growth in a cell viability assay.
In assay [14] the test system is RL. The assay can be described thus: cells. As to conditions: Homo sapiens.
Description: SANGER: Inhibition of human RL cell growth in a cell viability assay.
In assay [15] the test system is NCI-H719. The assay can be described thus: cells. As to conditions: Homo sapiens.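 Further: growth inhibition of the cultured cell line, read out with a viability assay.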
Description: SANGER: Inhibition of human NCI-H719 cell growth in a cell viability assay.

Consider `COc1cc(C)c(Sc2cnc(NC(=O)c3ccc(CNC(C)C(C)(C)C)cc3)s2)cc1C(=O)N1CCN(C(C)=O)CC1` (stereo not given), for which the IC50 in [1], in [2], in assay [3], in assay [4], in assay [5] and in assay [6] was above 10200 nM each time. The IC50 (usually the concentration that inhibits the measured activity by half) in [7] is above 10200 nM; in [8], above 10200 nM; in assay [9], above 10200 nM; in [10], 9110 nM; in [11] it was above 10200 nM; in assay [12] it was above 10200 nM. Besides, the figures for the IC50 in assay [13], in assay [14] and in assay [15] were 8910 nM, above 10200 nM and above 10200 nM, respectively.

Regarding `Cc1n[nH]c2ccc(-c3cncc(OC[C@@H](N)Cc4c[nH]c5ccccc45)c3)cc12` [A-443654], the IC50 in assay [1] was 600 nM; in assay [2] it was 669 nM; in assay [3], above 1020 nM; in assay [4] it was 57 nM; in assay [5], 267 nM; in [6], 122 nM. The IC50 in assay [7] was above 1020 nM; in assay [8], 294 nM; in assay [9] it was above 1020 nM; in assay [10], 701 nM; in [11], 191 nM; in assay [12], 509 nM. Moreover, the IC50 in assay [13] was 314 nM; in assay [14], above 1020 nM; in assay [15], above 1020 nM.

For the molecule `Cc1nc(Nc2ncc(C(=O)Nc3c(C)cccc3Cl)s2)cc(N2CCN(CCO)CC2)n1` [DASATINIB], the IC50 was above 1280 nM in assay [1]; above 1280 nM in assay [2]; above 1280 nM in assay [3]; below 5 nM in assay [4]; above 1280 nM in assay [5]; 9.91 nM in assay [6]. Moreover, the half-inhibitory concentration (IC50) in assay [7] is above 1280 nM; in assay [8], 340 nM; in assay [9], above 1280 nM; in [10], above 1280 nM; in [11] it was above 1280 nM; in assay [12] it was above 1280 nM. Besides, the IC50 in assay [13], in assay [14] and in assay [15] was above 1280 nM throughout.

Turning to `CCn1c(-c2nonc2N)nc2cnc(Oc3cccc(NC(=O)c4ccc(OCCN5CCOCC5)cc4)c3)cc21` [GSK-269962A], the half-inhibitory concentration (IC50) in assay [1], in assay [2], in [3], in [4], in [5] and in assay [6] was above 2500 nM throughout. Also, the half-maximal inhibitory concentration (IC50) in assay [7], in assay [8], in assay [9], in assay [10], in assay [11] and in assay [12] was above 2500 nM each time. Further, the half-maximal inhibitory concentration (IC50) in assay [13], in [14] and in assay [15] was above 2500 nM each time.

As to `Cc1[nH]c(/C=C2\C(=O)Nc3ccc(S(=O)(=O)Cc4c(Cl)cccc4Cl)cc32)c(C)c1C(=O)N1CCC[C@@H]1CN1CCCC1` [PHA-665752], the half-maximal inhibitory concentration (IC50) in assay [1], in assay [2], in assay [3], in assay [4], in assay [5] and in assay [6] was above 2000 nM throughout. Moreover, the half-maximal inhibitory concentration (IC50) in assay [7], in [8], in assay [9], in assay [10], in [11] and in assay [12] was above 2000 nM in each case. Further, the IC50 in assay [13], in assay [14] and in assay [15] was above 2000 nM each time.

The record behind these values is ChEMBL document CHEMBL1201861, “Genomics of Drug Sensitity in Cancer screening data, Wellcome Trust Sanger Institute”.
